Reference: patent US5550139A, “Serine protease inhibitors” (The Wichita State University, priority 1994, dated 1996)
One block for each compound: values may come before it.

How the values were obtained:
cathepsin G (Cath G) = target: T1, cathepsin G (Cath G) (Homo sapiens, UniProt P08311); assay: Inactivation of human leukocyte cathepsin G (kobs/[I]); type: biochemical; settings: for kinact/KI: pH 7.5
T1 construct: purchased Athens Research and Technology, Athens, Ga
T1 sequence (P08311 21-244 limits assumed): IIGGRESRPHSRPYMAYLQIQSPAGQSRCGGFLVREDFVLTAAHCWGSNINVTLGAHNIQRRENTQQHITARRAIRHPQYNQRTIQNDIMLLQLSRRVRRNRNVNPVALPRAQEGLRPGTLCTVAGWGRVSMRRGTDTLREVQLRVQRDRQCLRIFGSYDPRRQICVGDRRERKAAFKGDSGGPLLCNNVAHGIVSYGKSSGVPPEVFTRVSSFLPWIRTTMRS
Method: Human leukocyte cathepsin G (1.33 uM) is incubated with compound 8 (133 uM) (a) or compound 10 (13.3 uM) (b) in 0.1M HEPES buffer, pH 7.5, and 10% DMSO. Aliquots were withdrawn at different time intervals and assayed for enzymatic activity using methoxysuccinyl Ala-Ala-Pro-Phe p-nitroanilide.
Human leukocyte cathepsin G (1.48 μM was incubated with inhibitor 5A (1.48 μM in 0.1M HEPES buffer, pH 7.5, and 1% DMSO. Aliquots were withdrawn at different time intervals and assayed for enzymatic activity using methoxysuccinyl Ala-Ala-Pro-Phe p-nitroanilide.
(§1) An in vitro assay can be used to screen compounds of the invention for the ability to reduce or inhibit serine proteinase activity. The human leukocyte elastase (HLE), cathepsin G (Cath G), and proteinase-3 assays have each been described (Groutas et al., J. Med. Chem. 32:1607-1611, 1989; Groutas et al., Arch. Biochem. Biophys. 294:144-146, 1992; Kao et al., J. Clin. Invest. 82:1963-1973, 1988, each incorporated by reference herein). The pseudo first-order inactivation rate constants (kobs) were obtained from plots of ln(vt /vo) vs t, and expressed in terms of the apparent second-order inactivation rate constant, kobs /[I] M^-1 s^-1 (Tables 1-7). Tables 1-7 disclose the activity of preferred compounds of the invention as inhibitors of HLE and Cath G. Table 7 discloses the activity of Compounds 4A (C) and 3E (D) as inhibitors of Proteinase-3 activity. Compounds (A) and (B) have been disclosed previously (Groutas et al., Bioorganic and Med. Chem. 1(4):273-277, 1993; Groutas et al., J. Med. Chem. 36:3178, 1993).
(§2) Human leukocyte cathepsin G was obtained from Athens Research and Technology, Athens, Ga. Methoxysuccinyl Ala-Ala-Pro-Val p-nitroanilide and methoxysuccinyl Ala-Ala-Pro-Phe p-nitroanilide were purchased from Sigma Chemicals Co., St. Louis, Mo. Baker-analyzed 60-200 mesh silica gel was used for flash chromatography.

[1] = target: T2, human leukocyte elastase (HLE) (Homo sapiens, UniProt P08246); assay: Inactivation of human leukocyte elastase (kobs/[I]); type: biochemical
T2 construct: purchased Elastin Products Co., Owensville, Mo
T2 sequence (P08246 30-247 limits assumed): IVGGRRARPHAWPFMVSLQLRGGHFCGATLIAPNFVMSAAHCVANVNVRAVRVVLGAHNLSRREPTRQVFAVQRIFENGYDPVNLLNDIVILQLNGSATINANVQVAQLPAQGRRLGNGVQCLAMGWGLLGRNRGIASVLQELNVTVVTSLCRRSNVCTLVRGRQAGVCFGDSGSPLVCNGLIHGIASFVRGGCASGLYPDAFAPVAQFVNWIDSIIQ
Text: as §1
XII. Materials: Human leukocyte elastase was purchased from Elastin Products Co., Owensville, Mo.
as §2

Compound: O=C1[C@H](Cc2ccccc2)NS(=O)(=O)N1CF [Compound 1A, (S)-4-Benzyl-2-fluoromethyl-3-oxo-1,2,5-thiadiazolidine 1.1-dioxide]
- kinact/KI (cathepsin G (Cath G); Table 2): 600 M⁻¹ s⁻¹

Compound: O=C(N[C@@H](Cc1ccccc1)C(=O)OCN1C(=O)C(Cc2ccccc2)CS1(=O)=O)OCc1ccccc1 (stereo partly drawn) [Compound 1B]
- kinact/KI (cathepsin G (Cath G); Table 3): 20 M⁻¹ s⁻¹
- kinact/KI ([1]; Table 3): 110 M⁻¹ s⁻¹

Compound: O=C(/C=C/c1ccccc1)OCN1C(=O)C(Cc2ccccc2)CS1(=O)=O (stereo not drawn) [Compound 1C]
- kinact/KI (cathepsin G (Cath G); Table 4): 3220 M⁻¹ s⁻¹
- kinact/KI ([1]; Table 4): 280 M⁻¹ s⁻¹

Compound: O=C1C(Cc2ccccc2)CS(=O)(=O)N1CF (stereo not drawn) [Compound 1D, 4-benzyl-2-(fluoromethyl)isothiazolidin-3-one 1,1 dioxide]
- kinact/KI (cathepsin G (Cath G); Table 5): 2700 M⁻¹ s⁻¹
- kinact/KI ([1]; Table 5): 160 M⁻¹ s⁻¹

Compound: O=C1[C@H](Cc2ccccc2)N(S(=O)(=O)c2ccccc2)S(=O)(=O)N1CS(=O)(=O)c1ccccc1 [Compound 1E]
- kinact/KI (cathepsin G (Cath G); Table 6): 830 M⁻¹ s⁻¹

Compound: CC(C)Cc1ccc(C(C)C(=O)OCN2C(=O)C(Cc3ccccc3)CS2(=O)=O)cc1 (stereo not drawn) [Compound 1]
- kinact/KI (cathepsin G (Cath G); Table 1A): 240 M⁻¹ s⁻¹
- kinact/KI ([1]; Table 1A): 160 M⁻¹ s⁻¹

Compound: CN1[C@@H](Cc2ccccc2)C(=O)N(CF)S1(=O)=O [Compound 2A, (S)-4-Benzyl-2-fluoromethyl-5-methyl-3-oxo-1,2,5-thiadiazolidine 1.1-dioxide]
- kinact/KI (cathepsin G (Cath G); Table 2): 750 M⁻¹ s⁻¹
- kinact/KI ([1]; Table 2): 1320 M⁻¹ s⁻¹

Compound: CC(C)(C)OC(=O)N[C@@H](Cc1ccccc1)C(=O)OCN1C(=O)C(Cc2ccccc2)CS1(=O)=O (stereo partly drawn) [Compound 2B]
- kinact/KI (cathepsin G (Cath G); Table 3): 10 M⁻¹ s⁻¹
- kinact/KI ([1]; Table 3): 680 M⁻¹ s⁻¹

Compound: O=C(CCc1ccccc1)OCN1C(=O)C(Cc2ccccc2)CS1(=O)=O (stereo not drawn) [Compound 2C]
- kinact/KI (cathepsin G (Cath G); Table 4): 640 M⁻¹ s⁻¹
- kinact/KI ([1]; Table 4): 680 M⁻¹ s⁻¹

Compound: O=C1C(Cc2ccccc2)CS(=O)(=O)N1CCl (stereo not drawn) [Compound 2D]
- kinact/KI (cathepsin G (Cath G); Table 5): 2040 M⁻¹ s⁻¹
- kinact/KI ([1]; Table 5): 670 M⁻¹ s⁻¹

Compound: CC(C)C[C@@H]1NS(=O)(=O)N(CS(=O)(=O)c2ccccc2)C1=O [Compound 2E]
- kinact/KI ([1]; Table 6): 190 M⁻¹ s⁻¹

Compound: O=C(Cc1ccccc1Nc1c(Cl)cccc1Cl)OCN1C(=O)C(Cc2ccccc2)CS1(=O)=O (stereo not drawn) [Compound 2]
- kinact/KI (cathepsin G (Cath G); Table 1A): 80 M⁻¹ s⁻¹
- kinact/KI ([1]; Table 1A): 30 M⁻¹ s⁻¹

Compound: O=C1[C@H](Cc2ccccc2)N(Cc2ccccc2)S(=O)(=O)N1CF [Compound 3A, (S)-4.5-Dibenzyl-2-fluoromethyl-3-oxo-1,2,5-thiadiazolidine 1.1-dioxide]
- kinact/KI ([1]; Table 2): 930 M⁻¹ s⁻¹

Compound: CC(C)C[C@H]1C(=O)N(CS(=O)(=O)c2ccccc2)S(=O)(=O)N1CC(=O)OCc1ccccc1 [Compound 4E]
- kinact/KI ([1]; Table 6): 1710 M⁻¹ s⁻¹

Compound: CC(C)C[C@H]1C(=O)N(CS(=O)(=O)c2ccccc2)S(=O)(=O)N1CC(=O)OC(C)(C)C [Compound 5E]
- kinact/KI ([1]; Table 6): 2020 M⁻¹ s⁻¹

Compound: O=C1[C@H](Cc2ccccc2)NS(=O)(=O)N1CCl [Compound 8E]
- kinact/KI (cathepsin G (Cath G); Table 6): 30 M⁻¹ s⁻¹

Compound: O=C1[C@H](Cc2ccccc2)NS(=O)(=O)N1CS(=O)(=O)c1ccccc1 [Compound 10E]
- kinact/KI (cathepsin G (Cath G); Table 6): 30 M⁻¹ s⁻¹

Compound: CN1[C@@H](Cc2ccccc2)C(=O)N(CS(=O)(=O)c2ccccc2)S1(=O)=O [Compound 11E]
- kinact/KI (cathepsin G (Cath G); Table 6): 130 M⁻¹ s⁻¹

The next lines start with the values.

- kinact/KI (cathepsin G (Cath G); Table 6): 320 M⁻¹ s⁻¹
Compound: CCCCN1[C@@H](Cc2ccccc2)C(=O)N(CS(=O)(=O)c2ccccc2)S1(=O)=O [Compound 12E]

- kinact/KI (cathepsin G (Cath G); Table 5): 590 M⁻¹ s⁻¹
Compound: O=C1C(Cc2ccccc2)CS(=O)(=O)N1C[S+]([O-])c1ccccc1 (stereo not drawn) [Compound 13D]

- Cath G kobs/[I] (cathepsin G (Cath G); Table 5): 960 M⁻¹ s⁻¹
Compound: O=C1C(Cc2ccccc2)CS(=O)(=O)N1CS(=O)(=O)c1ccccc1 (stereo not drawn) [Compound 14D]

- kinact/KI (cathepsin G (Cath G); Table 6): 1130 M⁻¹ s⁻¹
Compound: CC(C)(C)OC(=O)CN1[C@@H](Cc2ccccc2)C(=O)N(CS(=O)(=O)c2ccccc2)S1(=O)=O [Compound 14E]

- kinact/KI (cathepsin G (Cath G); Table 5): 2080 M⁻¹ s⁻¹
Compound: CS(=O)(=O)CN1C(=O)C(Cc2ccccc2)CS1(=O)=O (stereo not drawn) [Compound 15D]

- kinact/KI (cathepsin G (Cath G); Table 6): 760 M⁻¹ s⁻¹
Compound: O=C1[C@H](Cc2ccccc2)N(C/C=C/c2ccccc2)S(=O)(=O)N1CS(=O)(=O)c1ccccc1 [Compound 15E]

- kinact/KI ([1]; Table 6): 10600 M⁻¹ s⁻¹
Compound: CCCCN1[C@@H](CC(C)C)C(=O)N(CS(=O)(=O)c2ccccc2)S1(=O)=O [Compound 16E]

- kinact/KI (cathepsin G (Cath G); Table 6): 440 M⁻¹ s⁻¹
Compound: CC(C)C[C@H]1C(=O)N(CS(=O)(=O)c2ccccc2)S(=O)(=O)N1Cc1ccccc1 [Compound 17E]

- kinact/KI ([1]; Table 6): 4590 M⁻¹ s⁻¹
Compound: CC(C)C[C@H]1C(=O)N(CS(C)(=O)=O)S(=O)(=O)N1C [Compound 18E]
